For assay [1], the system named is H460 (NRF2 pathway mutant cell line with high AKR1C3 expression). As to the kind of experiment: In vitro cell proliferation assay (CellTiter-Glo), H460. It counts as cell-based. The following applies: Homo sapiens, NCI-H460, 72 h; H460 cells, 3 days, CellTiter-Glo, top concentration 10 μM; read-out: H460 Qualified absolute AC50. The source says:
(§1) Cellular Proliferation Assay to Assess Compounds Activity in H460 (NRF2 Pathway Mutant Cell Line with High AKR1C3 Expression) and Hara (NRF2 Pathway Wild Type Cell Line with Low AKR1C3 Expression).
(§2) The cell lines A549 and H460 are NRF2 pathway mutant and specifically contain genetic alterations in KEAP1 (A549: G333C, H460: D236H) (Singh A. et al., 2006 PLoS Medicine 3(10) e420). In these cell lines the NRF2 pathway is constitutively active and these cells express high levels of NRF2 protein and NRF2 pathway target gene AKR1C3. […] They have low AKR1C3 expression.
(§3) In Vitro Cell Proliferation Assay
(§4) Day 1, for H460 800 cells/well or 40 μL of 2×10^4 cells/mL and for Hara 2000 cells/well or 40 μL of 5×10^4 cells/mL medium (RPMI-1640 supplemented with 10% fetal bovine serum and 1% penicillin/streptomycin) were seeded into 384-well tissue culture plates. Day 2, compounds were serially diluted 1:5 to generate 8 point dose response curves and added to cells for a final top concentration of 10 μM. DMSO (1%) control and MG132 (30 μM) controls are added in columns 23 and 24 respectively on each plate for positive and negative control. After incubation for 3 days at 37° C./5% CO2, 30 μl of CellTiter-Glo reagent (Promega) was added and the plates were incubated for 10 min on plate shaker. The amount of luminescence was determined using a Perkin Elmer Envision plate reader. CellTiter-Glo luminescence values of cells treated with DMSO and MG132 controls were used to normalize the data and calculate percentage activity and AC50s of compounds using the Helios Software suite.
Background: In ATP-based viability assays light output follows the ATP content of the culture.

Assay [2] has as its system Hara (NRF2 pathway wild type cell line with low AKR1C3 expression). The assay is described as follows: In vitro cell proliferation assay (CellTiter-Glo), Hara. The assay is classed as cell-based. The following applies: 72 h; Hara cells, 3 days, CellTiter-Glo, top concentration 10 μM; read-out: HARA Qualified absolute AC50.
Source text: as §1, §2, §3, §4

Regarding `COc1cc(F)ccc1CNC(=O)N1CCC2(CC1)CC(O)c1cc(F)ccc1N2` (racemic) [Example 168, 6′-fluoro-N-(4-fluoro-2-methoxybenzyl)-4′-hydroxy-3′,4′-dihydro-1′H-spiro[piperidine-4,2′-quinoline]-1-carboxamide], the AC50 was determined as 0.041 µM in assay [1] and 0.049 µM in assay [2].

`CN1c2ccc(F)cc2[C@@H](O)CC12CCN(C(=O)NCc1ccc(F)cc1)CC2` (single isomer, unassigned) [Example 151b]: the AC50 in assay [1] was determined as 3.4 µM; in assay [2], 6.07 µM.

Turning to `O=C(NCc1ccc(F)cc1O)N1CCC2(CC1)C[C@H](O)c1cc(F)ccc1N2` (single isomer, unassigned) [Example 154b], the values for the AC50 in assay [1] and in assay [2] were 0.464 µM and 0.749 µM, respectively.

As for `COc1cc(F)ccc1CNC(=O)N1CCC2(CC1)CC(=O)c1cc(F)ccc1N2C` [Example 2, 6′-fluoro-N-(4-fluoro-2-methoxybenzyl)-1′-methyl-4′-oxo-3′,4′-dihydro-1′H-spiro[piperidine-4,2′-quinoline]-1-carboxamide], the AC50 is 0.005 µM in assay [1] and above 10 µM in assay [2].

Turning to `CN1c2ccc(F)cc2C(=O)CC12CCN(C(=O)NCc1ccc(F)c(OCCO)c1)CC2` [Example 3, 6′-fluoro-N-(4-fluoro-3-(2-hydroxyethoxy)benzyl)-1′-methyl-4′-oxo-3′,4′-dihydro-1′H-spiro[piperidine-4,2′-quinoline]-1-carboxamide], the AC50 in assay [1] came to 0.005 µM; in assay [2], 1.76 µM.

For the molecule `CN1c2ccc(F)cc2C(=O)CC12CCN(C(=O)NCc1ccc(F)cc1F)CC2` [Example 5, N-(2,4-difluorobenzyl)-6′-fluoro-1′-methyl-4′-oxo-3′,4′-dihydro-1′H-spiro[piperidine-4,2′-quinoline]-1-carboxamide], the AC50 in assay [1] was 0.008 µM; in assay [2], above 10 µM.

As to `CCN1c2ccc(F)cc2C(=O)CC12CCN(C(=O)NCc1ccc(F)cc1)CC2` [Example 6, 1′-ethyl-6′-fluoro-N-(4-fluorobenzyl)-4′-oxo-3′,4′-dihydro-1′H-spiro[piperidine-4,2′-quinoline]-1-carboxamide], the AC50 was 0.009 µM in assay [1] and above 10 µM in assay [2].

On to `COc1cc(CNC(=O)N2CCC3(CC2)CC(=O)c2cc(F)ccc2N3C)ccc1F` [Example 8, 6′-fluoro-N-(4-fluoro-3-methoxybenzyl)-1′-methyl-4′-oxo-3′,4′-dihydro-1′H-spiro[piperidine-4,2′-quinoline]-1-carboxamide], for which the AC50 in assay [1] is 0.015 µM; in assay [2], above 10 µM.

As to `Cc1occc1CNC(=O)N1CCC2(CC1)CC(=O)c1cc(F)cc(F)c1N2` [Example 10, 6′,8′-difluoro-N-((2-methylfuran-3-yl)methyl)-4′-oxo-3′,4′-dihydro-1′H-spiro[piperidine-4,2′-quinoline]-1-carboxamide], the AC50 was 0.021 µM in assay [1] and 5.41 µM in assay [2].

As for `NC(=O)c1cc(CNC(=O)N2CCC3(CC2)CC(=O)c2cc(F)cc(F)c2N3)ccc1F` [Example 11, N-(3-carbamoyl-4-fluorobenzyl)-6′,8′-difluoro-4′-oxo-3′,4′-dihydro-1′H-spiro[piperidine-4,2′-quinoline]-1-carboxamide], the AC50 in assay [1] was 0.023 µM; in assay [2], above 10 µM.

Take `[2H]C([2H])(NC(=O)N1CCC2(CC1)CC(=O)c1cc(F)ccc1N2)c1ccc(F)cc1` [Example 12, 6′-fluoro-N-((4-fluorophenyl)methyl-d2)-4′-oxo-3′,4′-dihydro-1′H-spiro[piperidine-4,2′-quinoline]-1-carboxamide]: the AC50 in assay [1] is 0.024 µM; in assay [2] it was above 10 µM.

Turning to `CCN1c2ccc(F)cc2C(=O)CC12CCN(C(=O)NCc1ccc(F)c(C(N)=O)c1)CC2` [Example 13, N-(3-carbamoyl-4-fluorobenzyl)-1′-ethyl-6′-fluoro-4′-oxo-3′,4′-dihydro-1′H-spiro[piperidine-4,2′-quinoline]-1-carboxamide], the AC50 in assay [1] was 0.025 µM; in assay [2], 7.95 µM.

In the case of `COCCN1c2ccc(F)cc2C(=O)CC12CCN(C(=O)NCc1ccc(F)cc1)CC2` [Example 14, 6′-fluoro-N-(4-fluorobenzyl)-1′-(2-methoxyethyl)-4′-oxo-3′,4′-dihydro-1′H-spiro[piperidine-4,2′-quinoline]-1-carboxamide], the AC50 stood at 0.029 µM in assay [1] and 0.795 µM in assay [2].

For `O=C1CC2(CCN(C(=O)NCc3ccc(F)c(-c4cnco4)c3)CC2)Nc2ccc(F)cc21` [Example 15, 6′-fluoro-N-(4-fluoro-3-(oxazol-5-yl)benzyl)-4′-oxo-3′,4′-dihydro-1′H-spiro[piperidine-4,2′-quinoline]-1-carboxamide], the AC50 in assay [1] came out at 0.029 µM; in assay [2], 9.44 µM.

`O=C1CC2(CCN(C(=O)NCc3ccc(F)cc3F)CC2)Nc2ccc(F)cc21` [Example 16, N-(2,4-difluorobenzyl)-6′-fluoro-4′-oxo-3′,4′-dihydro-1′H-spiro[piperidine-4,2′-quinoline]-1-carboxamide]: the AC50 in assay [1] was 0.029 µM; in assay [2] it was above 10 µM.

As for `CN1c2ccc(F)cc2C(=O)CC12CCN(C(=O)NCc1cc(NCCO)c(F)cc1F)CC2` [Example 17, N-(2,4-difluoro-5-((2-hydroxyethyl)amino)benzyl)-6′-fluoro-1′-methyl-4′-oxo-3′,4′-dihydro-1′H-spiro[piperidine-4,2′-quinoline]-1-carboxamide], the AC50 was 0.03 µM in assay [1] and above 10 µM in assay [2].

Turning to `CCN1c2ccc(F)cc2C(=O)CC12CCN(C(=O)NCc1cc(NCCO)c(F)cc1F)CC2` [Example 18, N-(2,4-difluoro-5-((2-hydroxyethyl)amino)benzyl)-1′-ethyl-6′-fluoro-4′-oxo-3′,4′-dihydro-1′H-spiro[piperidine-4,2′-quinoline]-1-carboxamide], the AC50 in assay [1] came to 0.03 µM; in assay [2], 4.19 µM.

In the case of `O=C1CC2(CCN(C(=O)NCc3ccc(F)cc3)CC2)N(CCO)c2ccc(F)cc21` [Example 19, 6′-fluoro-N-(4-fluorobenzyl)-1′-(2-hydroxyethyl)-4′-oxo-3′,4′-dihydro-1′H-spiro[piperidine-4,2′-quinoline]-1-carboxamide], the AC50 in assay [1] worked out at 0.031 µM; in assay [2] it was 0.694 µM.

As for `COCCNc1cc(F)ccc1CNC(=O)N1CCC2(CC1)CC(=O)c1cc(F)ccc1N2C` [Example 20, 6′-fluoro-N-(4-fluoro-2-((2-methoxyethyl)amino)benzyl)-1′-methyl-4′-oxo-3′,4′-dihydro-1′H-spiro[piperidine-4,2′-quinoline]-1-carboxamide], the AC50 was 0.033 µM in assay [1] and above 10 µM in assay [2].

Consider `COCCOc1cc(CNC(=O)N2CCC3(CC2)CC(=O)c2cc(F)ccc2N3C)ccc1F` [Example 21, 6′-fluoro-N-(4-fluoro-3-(2-methoxyethoxy)benzyl)-1′-methyl-4′-oxo-3′,4′-dihydro-1′H-spiro[piperidine-4,2′-quinoline]-1-carboxamide], for which the values for the AC50 in assay [1] and in assay [2] were 0.034 µM and above 10 µM, respectively.

Turning to `CC(C)S(=O)(=O)Nc1cc(CNC(=O)N2CCC3(CC2)CC(=O)c2cc(F)ccc2N3)ccc1F` [Example 23, 6′-fluoro-N-(4-fluoro-3-((1-methylethyl)sulfonamido)benzyl)-4′-oxo-3′,4′-dihydro-1′H-spiro[piperidine-4,2′-quinoline]-1-carboxamide], the AC50 in assay [1] is 6.9 µM; in assay [2], above 10 µM.

Take `NC(=O)c1cc(CNC(=O)N2CCC3(CC2)CC(=O)c2cc(F)ccc2N3)ccc1F` [Example 24, N-(3-carbamoyl-4-fluorobenzyl)-6′-fluoro-4′-oxo-3′,4′-dihydro-1′H-spiro[piperidine-4,2′-quinoline]-1-carboxamide]: the figures for the AC50 in assay [1] and in assay [2] were 0.046 µM and 5.94 µM, respectively.

Consider `Cc1cc(CNC(=O)N2CCC3(CC2)CC(=O)c2cc(F)ccc2N3)c(C(F)(F)F)o1` [Example 127, 6′-fluoro-N-((5-methyl-2-(trifluoromethyl)furan-3-yl)methyl)-4′-oxo-3′,4′-dihydro-1′H-spiro[piperidine-4,2′-quinoline]-1-carboxamide], for which the AC50 in assay [1] was 1.43 µM.

Turning to `C#CCNC(=O)c1cc(CNC(=O)N2CCC3(CC2)CC(=O)c2cc(F)ccc2N3)ccc1F` [Example 128, 6′-fluoro-N-(4-fluoro-3-(prop-2-yn-1-ylcarbamoyl)benzyl)-4′-oxo-3′,4′-dihydro-1′H-spiro[piperidine-4,2′-quinoline]-1-carboxamide], the AC50 in assay [1] worked out at 1.48 µM.

For the molecule `CN1c2ccc(F)cc2C(=O)CC12CCN(C(=O)NCc1ccc(F)c(NCCC(=O)O)c1)CC2` [Example 148, 3-((2-fluoro-5-((6′-fluoro-1′-methyl-4′-oxo-3′,4′-dihydro-1′H-spiro[piperidine-4,2′-quinoline]-1-carboxamido)methyl)phenyl)amino)propanoic acid], in assay [1], the AC50 stood at 4.93 µM.

For orientation: AC50 means the midpoint of the concentration-response curve, whichever way the signal moves.

The values are drawn from patent US11970497B2, “Tricyclic AKR1C3 dependent KARS inhibitors” (Novartis AG, priority 2019, dated 2024).
